In publication PMC9486168, “Protein-protein interaction-based high throughput screening for adenylyl cyclase 1 inhibitors: Design, implementation, and discovery of a novel chemotype” (Frontiers in Pharmacology, 2022):
Structures can show the parent of a compound that is named as a salt. Where two headings read alike, the source gives them in different places.

How the values were obtained:
[1] = CellTiter-Glo 2.0 cell viability assay; format: cell-based; details: human, HEK293T cells, pH 7.4; at the compound's AC1/CaM NanoBiT IC50 concentration; read-out: % Viable Cells at AC1 IC50;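 further: luminescence read-out after 30 min compound exposure at 37 °C in HEPES-buffered HBSS, scaled to vehicle-treated cells as 100% and cell-free buffer wells as 0%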
HEK293T cells = test: CellTiter-Glo 2.0 cell viability assay; format: cell-based; details: for decrease in cell viability at AC1/CaM IC50: at AC1/CaM NanoBiT IC50;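 on all read-outs here: luminescence read-out after 30 min compound exposure at 37 °C in HEPES-buffered HBSS, scaled to vehicle-treated cells as 100% and cell-free buffer wells as 0%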
AC1-C1b/CaM = molecular target: T1, AC1-C1b/CaM (Homo sapiens, UniProt P0DP23); test: AC1-C1b/CaM fluorescence polarization (FP) assay; format: binding; details: for IC50: 100 nM AC1-C1b, 100 nM GST-CaM, 95% CI in brackets; for Ki: Cheng-Prusoff from FP IC50 and Kd; for AC1-CaM FP % inhib: relative to 100 μM CDZ (100% inhibition), highest concentration tested
T1 construct: made in house; host or cells: E. coli BL21-CodonPlus (DE3)-RIPL

AC8/CaM PPI = molecular target: T2, AC8/CaM PPI (Homo sapiens, UniProt P0DP23); test: AC8/CaM NanoBiT assay in HEK293T cells; format: cell-based, rat; details: for IC50: HEK293T, thapsigargin-stimulated, AUC, read-out: Nanobit: AC8-CaM IC50 (μM ± SEM)
T2 construct: confirmed as an AC1/AC8 non-selective hit against full-length AC1- and AC8-CaM in the NanoBiT assay; The hCaM residues 1–149, residues 1–1,248 of rat AC8 (rAC8); expressed in transfected cells; host or cells: HEK293T, transient transfection

AC1/CaM PPI = molecular target: T3, AC1/CaM PPI (Homo sapiens, UniProt P0DP23); test: AC1/CaM NanoBiT assay in HEK293T cells; format: cell-based; details: for IC50: HEK293T, thapsigargin-stimulated, AUC, read-out: Nanobit: AC1-CaM IC50 (μM ± SEM)
T3 construct: human AC1 (hAC1) residues 1–1,118 were cloned; The hCaM residues 1–149, residues 1–1,248 of rat AC8 (rAC8); expressed in transfected cells; host or cells: HEK293T, transient transfection

AC8-C2b/CaM = molecular target: T4, AC8-C2b/CaM (Homo sapiens, UniProt P0DP23); test: AC8-C2b/CaM FP counterscreen assay; format: binding; details: for Ki / Ki (μM) AC8 C2b: Cheng-Prusoff from FP IC50 and Kd, n/i given where none; for Ki ratio (AC8-C2b/AC1): ratio >1: more potent in AC1/CaM FP;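 on all read-outs here: fluorescence polarization of AC peptide binding to GST-CaM in HEPES buffer with KCl and 50 µM CaCl2, compound preincubated 30 min with GST-CaM, DMSO and calmidazolium as controls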
T4 construct: made in house; host or cells: E. coli BL21-CodonPlus (DE3)-RIPL

AC8-Nt/CaM = molecular target: T5, AC8-Nt/CaM (Homo sapiens, UniProt P0DP23); test: AC8-Nt/CaM FP counterscreen assay; format: binding; details: for Ki / Ki (μM) AC8 NT: Cheng-Prusoff from FP IC50 and Kd, n/i given where none; for Ki ratio (AC8 NT/AC1): ratio >1: more potent in AC1/CaM FP;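 on all read-outs here: fluorescence polarization of AC peptide binding GST-CaM in HEPES buffer with CaCl2, compound preincubated with CaM 30 min, peptide read after 2 h at room temperature in dark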
T5 construct: made in house; host or cells: E. coli BL21-CodonPlus (DE3)-RIPL

AC1 = molecular target: T6, AC1 (Homo sapiens, UniProt Q08828); test: cAMP accumulation assay, AC1-HEK Δ3/6 KO cells; format: cell-based
T6 construct: expressed in transfected cells
Procedure: Cells were then incubated for 1 h at 37°C and 5% CO2. Cells were then treated with varying concentrations of inhibitors for 30 min, followed by treatment with calcium ionophore A23187 (3 μM) in 500 μM 3-isobutyl-1-methylxanthine (IBMX), a phosphodiesterase inhibitor, for 1 h at RT (Sigma Aldrich, St. Louis, MO). Finally, Cisbio HTRF detection reagents were added and incubated for 1–24 h at RT. Plates were read according to manufacturer’s protocol on an HTRF-compatible plate reader at 620 and 665 nm cAMP concentrations were interpolated from a cAMP standard curve. […] For cytotoxicity assays, compounds were tested at 30 μM and this protocol was used with the exception of detection reagents; CellTiter-Glo 2.0 reagent was used according to manufacturer’s protocol and luminescence was read on the Synergy Neo2 plate reader. Data are normalized to cells treated with vehicle (100%) or 2% tween (0%) and are represented as the percent of vehicle, from the average of three independent experiments (N = 3).

CaM = molecular target: T7, CaM (Homo sapiens, UniProt P0DP23); test: 1H-15N HSQC NMR of 15N-CaM with compound; format: binding; details: 5 equivalent molar excess over 100 μM CaM
T7 construct: 6X-His-GST (N, cleaved yes); made in house; host or cells: E. coli BL21-CodonPlus (DE3)-RIPL in M9 minimal media with 15NH4Cl
Procedure: All NMR samples contained 100 μM ^15N-CaM in 20 mM HEPES pH 7.4, 100 mM KCl, 10 mM CaCl2, 10% D2O, and 5% DMSO. Initial spectra were collected for CaM alone before individual compounds were titrated to observe chemical shift perturbations. All spectra were acquired at 298 K using a 600 MHz Bruker Avance NEO NMR spectrometer with a triple resonance gradient cryoprobe. NMR spectra were processed using NMRPipe and analyzed using NMRFAM-SPARKY.

AC5 = molecular target: T8, AC5 (Homo sapiens, UniProt O95622); test: cAMP accumulation assay, AC5-HEK Δ3/6 KO cells; format: cell-based; details: read-out: % Inhibited at AC5 ± SEM
T8 construct: expressed in transfected cells
Procedure: (§1) Cryopreserved HEK293 cells with AC3 and AC6 knocked out, and stably expressing AC1, AC2, AC5, or AC8 (AC1-HEK Δ3/6 KO, AC2-HEK Δ3/6 KO, AC5-HEK Δ3/6 KO, or AC8-HEK Δ3/6 KO cells, respectively; [Soto-Velasquez et al., 2018]) were plated at 5,000 cells/well. Cells were then incubated for 1 h at 37°C and 5% CO2. Cells were then treated with varying concentrations of inhibitors for 30 min, followed by treatment with calcium ionophore A23187 (3 μM) in 500 μM 3-isobutyl-1-methylxanthine (IBMX), a phosphodiesterase inhibitor, for 1 h at RT (Sigma Aldrich, St. Louis, MO). Finally, Cisbio HTRF detection reagents were added and incubated for 1–24 h at RT. Plates were read according to manufacturer’s protocol on an HTRF-compatible plate reader at 620 and 665 nm cAMP concentrations were interpolated from a cAMP standard curve. […] For cytotoxicity assays, compounds were tested at 30 μM and this protocol was used with the exception of detection reagents; CellTiter-Glo 2.0 reagent was used according to manufacturer’s protocol and luminescence was read on the Synergy Neo2 plate reader. Data are normalized to cells treated with vehicle (100%) or 2% tween (0%) and are represented as the percent of vehicle, from the average of three independent experiments (N = 3).

AC2 = molecular target: T9, AC2 (Homo sapiens, UniProt Q08462); test: cAMP accumulation assay, AC2-HEK Δ3/6 KO cells; format: cell-based; details: read-out: % Inhibited at AC2 ± SEM
T9 construct: expressed in transfected cells
Procedure: as §1

[2] = Cytotoxicity assay (CellTiter-Glo 2.0) in AC1-HEK Δ3/6 KO cells; format: cell-based; details: human, percent of vehicle, read-out: % Viable Cells at AC1 30 μM
Procedure: as §1

AC8 = molecular target: T10, AC8 (Homo sapiens, UniProt P40145); test: cAMP accumulation assay, AC8-HEK Δ3/6 KO cells; format: cell-based; details: CDI analog SAR set, 3 μM A23187; read-out: IC50 (μM) ± SEM AC8
T10 construct: expressed in transfected cells
Procedure: as §1

[3] = initial examination, 10,000 cells per well, 3 μM A23187, 1 h RT, read-out: AC1 IC50 ± SEM

T6 sequence (Q08828 whole entry): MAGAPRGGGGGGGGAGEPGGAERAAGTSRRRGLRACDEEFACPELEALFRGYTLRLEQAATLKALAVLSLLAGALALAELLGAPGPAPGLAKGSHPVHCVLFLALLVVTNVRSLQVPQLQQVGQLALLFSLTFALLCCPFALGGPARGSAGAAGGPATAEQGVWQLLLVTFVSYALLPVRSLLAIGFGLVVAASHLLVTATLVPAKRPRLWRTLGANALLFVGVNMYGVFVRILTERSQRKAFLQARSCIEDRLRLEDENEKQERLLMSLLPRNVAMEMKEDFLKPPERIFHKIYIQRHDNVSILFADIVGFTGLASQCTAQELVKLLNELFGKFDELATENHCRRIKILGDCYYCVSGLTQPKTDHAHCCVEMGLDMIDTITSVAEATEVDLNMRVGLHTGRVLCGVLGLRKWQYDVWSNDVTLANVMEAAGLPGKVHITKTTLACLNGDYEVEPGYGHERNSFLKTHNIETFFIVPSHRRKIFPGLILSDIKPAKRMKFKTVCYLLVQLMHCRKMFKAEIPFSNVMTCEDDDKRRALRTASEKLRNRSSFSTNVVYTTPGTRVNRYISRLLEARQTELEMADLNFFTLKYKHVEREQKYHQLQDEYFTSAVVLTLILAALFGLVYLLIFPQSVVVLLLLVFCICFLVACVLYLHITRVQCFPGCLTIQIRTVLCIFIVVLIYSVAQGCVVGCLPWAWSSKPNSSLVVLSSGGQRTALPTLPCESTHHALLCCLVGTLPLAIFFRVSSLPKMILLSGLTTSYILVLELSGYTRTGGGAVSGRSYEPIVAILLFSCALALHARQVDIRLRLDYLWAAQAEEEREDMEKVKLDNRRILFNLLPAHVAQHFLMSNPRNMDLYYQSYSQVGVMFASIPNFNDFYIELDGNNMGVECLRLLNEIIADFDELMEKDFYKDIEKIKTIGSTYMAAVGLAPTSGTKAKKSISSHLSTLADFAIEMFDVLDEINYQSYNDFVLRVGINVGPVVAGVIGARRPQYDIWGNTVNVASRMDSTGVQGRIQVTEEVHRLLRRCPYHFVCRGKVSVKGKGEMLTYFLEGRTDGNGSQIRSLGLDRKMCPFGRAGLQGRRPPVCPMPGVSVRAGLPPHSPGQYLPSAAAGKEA
T10 sequence (P40145 whole entry, species assumed): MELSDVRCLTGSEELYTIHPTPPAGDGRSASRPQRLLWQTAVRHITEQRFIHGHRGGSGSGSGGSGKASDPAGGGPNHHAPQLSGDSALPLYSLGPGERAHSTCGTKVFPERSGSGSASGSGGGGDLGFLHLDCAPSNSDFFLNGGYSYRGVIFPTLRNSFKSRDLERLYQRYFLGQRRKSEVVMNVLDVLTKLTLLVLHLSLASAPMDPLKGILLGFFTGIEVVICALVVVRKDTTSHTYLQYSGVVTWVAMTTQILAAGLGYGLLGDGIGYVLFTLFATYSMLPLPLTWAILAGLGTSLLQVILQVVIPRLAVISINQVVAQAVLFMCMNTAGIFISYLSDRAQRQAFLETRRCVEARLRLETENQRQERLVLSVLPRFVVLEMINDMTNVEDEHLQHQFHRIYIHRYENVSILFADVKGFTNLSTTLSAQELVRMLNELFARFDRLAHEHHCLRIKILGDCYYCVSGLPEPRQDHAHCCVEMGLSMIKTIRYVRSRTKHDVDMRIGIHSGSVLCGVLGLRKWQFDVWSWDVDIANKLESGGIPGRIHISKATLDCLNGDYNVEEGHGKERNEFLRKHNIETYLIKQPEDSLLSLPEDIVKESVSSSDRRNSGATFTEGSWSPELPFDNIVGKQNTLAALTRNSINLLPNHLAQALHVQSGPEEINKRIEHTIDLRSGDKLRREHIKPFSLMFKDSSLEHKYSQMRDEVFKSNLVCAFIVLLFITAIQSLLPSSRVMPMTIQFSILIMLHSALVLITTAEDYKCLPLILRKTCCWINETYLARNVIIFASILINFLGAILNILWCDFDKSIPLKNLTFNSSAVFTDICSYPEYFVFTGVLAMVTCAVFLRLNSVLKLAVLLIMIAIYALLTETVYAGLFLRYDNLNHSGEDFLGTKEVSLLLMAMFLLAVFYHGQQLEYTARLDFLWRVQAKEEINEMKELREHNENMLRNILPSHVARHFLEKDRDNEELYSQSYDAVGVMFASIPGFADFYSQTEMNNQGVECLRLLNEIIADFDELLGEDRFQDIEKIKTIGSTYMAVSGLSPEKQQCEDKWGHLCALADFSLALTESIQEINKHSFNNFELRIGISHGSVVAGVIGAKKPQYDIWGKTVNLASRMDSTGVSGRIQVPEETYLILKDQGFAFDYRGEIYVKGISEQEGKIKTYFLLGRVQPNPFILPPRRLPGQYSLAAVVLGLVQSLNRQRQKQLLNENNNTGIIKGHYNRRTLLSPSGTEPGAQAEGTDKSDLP
T8 sequence (O95622 whole entry, species assumed): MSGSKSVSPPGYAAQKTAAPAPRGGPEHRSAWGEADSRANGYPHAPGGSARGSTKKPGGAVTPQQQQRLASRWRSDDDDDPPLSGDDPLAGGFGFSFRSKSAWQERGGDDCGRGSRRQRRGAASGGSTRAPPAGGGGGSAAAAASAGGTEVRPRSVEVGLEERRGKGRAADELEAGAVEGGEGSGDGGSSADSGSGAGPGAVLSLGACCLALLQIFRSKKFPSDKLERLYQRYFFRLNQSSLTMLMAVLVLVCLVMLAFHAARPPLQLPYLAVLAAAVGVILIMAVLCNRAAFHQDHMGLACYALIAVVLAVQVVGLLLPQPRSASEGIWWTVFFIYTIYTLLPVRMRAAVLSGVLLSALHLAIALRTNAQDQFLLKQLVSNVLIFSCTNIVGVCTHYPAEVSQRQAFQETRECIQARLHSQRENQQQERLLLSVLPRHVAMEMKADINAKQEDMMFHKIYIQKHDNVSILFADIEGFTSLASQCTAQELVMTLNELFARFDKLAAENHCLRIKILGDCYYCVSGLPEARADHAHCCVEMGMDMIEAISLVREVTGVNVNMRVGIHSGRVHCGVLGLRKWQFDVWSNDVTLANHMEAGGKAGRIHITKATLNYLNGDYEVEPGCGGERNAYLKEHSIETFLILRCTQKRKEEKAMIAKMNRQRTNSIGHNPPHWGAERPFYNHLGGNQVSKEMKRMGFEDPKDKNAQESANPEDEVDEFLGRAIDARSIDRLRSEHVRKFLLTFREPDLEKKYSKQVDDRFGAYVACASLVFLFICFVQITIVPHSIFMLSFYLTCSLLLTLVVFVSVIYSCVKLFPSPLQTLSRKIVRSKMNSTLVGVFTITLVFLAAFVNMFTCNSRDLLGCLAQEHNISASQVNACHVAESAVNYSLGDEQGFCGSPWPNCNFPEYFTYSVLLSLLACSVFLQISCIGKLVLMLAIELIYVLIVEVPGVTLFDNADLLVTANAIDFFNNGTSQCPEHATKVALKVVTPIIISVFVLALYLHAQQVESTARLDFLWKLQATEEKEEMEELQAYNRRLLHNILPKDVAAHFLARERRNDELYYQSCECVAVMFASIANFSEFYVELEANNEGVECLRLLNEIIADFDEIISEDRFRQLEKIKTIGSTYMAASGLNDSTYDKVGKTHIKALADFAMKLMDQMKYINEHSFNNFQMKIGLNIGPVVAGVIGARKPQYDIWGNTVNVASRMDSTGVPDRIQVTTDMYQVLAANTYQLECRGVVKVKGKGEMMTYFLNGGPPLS
T9 sequence (Q08462 whole entry): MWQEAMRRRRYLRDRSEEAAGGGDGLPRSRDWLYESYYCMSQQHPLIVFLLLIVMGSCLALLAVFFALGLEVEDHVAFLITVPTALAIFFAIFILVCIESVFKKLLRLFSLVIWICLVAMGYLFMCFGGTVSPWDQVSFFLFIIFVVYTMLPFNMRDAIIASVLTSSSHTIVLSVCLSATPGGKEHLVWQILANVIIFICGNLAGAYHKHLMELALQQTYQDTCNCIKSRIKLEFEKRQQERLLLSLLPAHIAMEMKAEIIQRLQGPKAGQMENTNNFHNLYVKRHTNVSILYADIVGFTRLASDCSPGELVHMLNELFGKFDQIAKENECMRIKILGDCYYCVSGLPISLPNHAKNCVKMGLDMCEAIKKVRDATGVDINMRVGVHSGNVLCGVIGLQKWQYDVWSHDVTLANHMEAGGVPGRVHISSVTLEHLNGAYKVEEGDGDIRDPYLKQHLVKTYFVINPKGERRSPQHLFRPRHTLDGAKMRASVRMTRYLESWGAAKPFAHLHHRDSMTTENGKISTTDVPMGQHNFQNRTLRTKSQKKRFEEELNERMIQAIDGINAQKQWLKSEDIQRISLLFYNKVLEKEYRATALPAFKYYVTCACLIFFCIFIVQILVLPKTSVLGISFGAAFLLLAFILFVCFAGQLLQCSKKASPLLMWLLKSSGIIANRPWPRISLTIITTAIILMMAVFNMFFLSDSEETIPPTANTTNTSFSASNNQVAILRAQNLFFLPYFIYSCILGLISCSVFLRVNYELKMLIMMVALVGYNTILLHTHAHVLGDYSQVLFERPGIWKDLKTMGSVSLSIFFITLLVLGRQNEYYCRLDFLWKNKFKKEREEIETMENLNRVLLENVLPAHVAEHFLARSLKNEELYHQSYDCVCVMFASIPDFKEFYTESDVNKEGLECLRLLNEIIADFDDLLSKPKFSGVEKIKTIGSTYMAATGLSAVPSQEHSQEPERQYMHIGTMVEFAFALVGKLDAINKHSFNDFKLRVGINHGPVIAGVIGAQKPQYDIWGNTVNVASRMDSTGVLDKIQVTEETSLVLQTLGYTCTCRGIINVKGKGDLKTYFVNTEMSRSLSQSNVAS

| IC50 (AC1-C1b/CaM) | Ki (AC1-C1b/CaM) | AC1-CaM FP % inhib (AC1-C1b/CaM) | IC50 (AC8/CaM PPI) | IC50 (AC1/CaM PPI) | Ki ratio (AC8-C2b/AC1) (AC8-C2b/CaM) | Ki ratio (AC8 NT/AC1) (AC8-Nt/CaM) | IC50 (AC1; [3]) | Ki (μM) AC8 C2b (AC8-C2b/CaM) | Ki (μM) AC8 NT (AC8-Nt/CaM) | Structure (SMILES) | viability at 30 min [1] | decrease in cell viability at AC1/CaM IC50 (HEK293T cells) | Ki (AC8-C2b/CaM) | Ki (AC8-Nt/CaM) | cell viability at ∼300 μM (HEK293T cells) | chemical shift perturbations (CSP) of 15N-CaM (CaM) | also measured |
| --- | --- | --- | --- | --- | --- | --- | --- | --- | --- | --- | --- | --- | --- | --- | --- | --- | --- |
| 22 µM | 5.2 µM | 15% | 47.1 ± 1.35 µM | 111 ± 1.23 µM | 4.0 | 2.7 | – | – | – | [H]/N=C(\N/C(=N/[H])NCCCCCCNC(=N)NC(=N)Nc1ccc(Cl)cc1)Nc1ccc(Cl)cc1 [Compound 9, Chlorhexidine HCl] | 80% | greater than 10% | 20.8 µM | 13.8 µM | – | – | – |
| 73.5 µM | 17.4 µM | – | 13.1 ± 1.19 µM | 16.1 ± 1.13 µM | AC1 Selective | AC1 Selective | 31 ± 6.63 µM | n/i | n/i | CC(=O)Oc1c(Sc2ccc(Cl)cc2)c(C)nn1C(C)(C)C [Compound 13] | 96% | – | – | – | decrease in cell viability | largest CSPs | cell viability reduced at highest concentration tested (HEK293T cells; 316 μM): ~50% |
| 22.1 µM | 5.2 µM | 58% | 33.3 ± 1.18 µM | 26.1 ± 1.17 µM | AC1 Selective | AC1 Selective | 4.88 ± 2.14 µM | n/i | n/i | CCc1cc(C(c2cccs2)N2CCN(C)CC2)c(NC(=O)c2ccco2)s1 (stereo not drawn) [Compound 15] | 100% | – | – | – | decrease in cell viability | several peaks were broadened by intermediate exchange and disappeared | inhibition at 30 µM (AC5): 47 ± 10%; IC50 (AC1; CDI analog SAR set, 3 μM A23187, read-out: IC50 (μM) ± SEM AC1): 4.36 ± 0.32 µM; inhibition of AC1 activity (AC1; CDI analog set, maximal inhibition of A23187 response): 100%; inhibition of AC1 activity (efficacy) (AC1; initial characterization of hits, data not shown): ~75%; inhibition at 30 µM (AC2): 59 ± 14%; viability at 30 min, 30 μM [2]: 43%; inhibition of AC8-CaM interaction in NanoBiT (AC8/CaM PPI; full-length proteins): 100%; inhibition of AC1-CaM interaction in NanoBiT (AC1/CaM PPI; full-length proteins): 100%; IC50 (AC8): 3.9 ± 1.83 µM |

| Structure (SMILES) | IC50 (AC1-C1b/CaM) | Ki (AC1-C1b/CaM) | AC1-CaM FP % inhib (AC1-C1b/CaM) | IC50 (AC8/CaM PPI) | IC50 (AC1/CaM PPI) | Ki ratio (AC8-C2b/AC1) (AC8-C2b/CaM) | Ki ratio (AC8 NT/AC1) (AC8-Nt/CaM) | IC50 (AC1; [3]) | Ki (μM) AC8 C2b (AC8-C2b/CaM) | Ki (μM) AC8 NT (AC8-Nt/CaM) | viability at 30 min [1] | decrease in cell viability at AC1/CaM IC50 (HEK293T cells) | Ki (AC8-C2b/CaM) | Ki (AC8-Nt/CaM) | cell viability at ∼300 μM (HEK293T cells) | chemical shift perturbations (CSP) of 15N-CaM (CaM) | also measured |
| --- | --- | --- | --- | --- | --- | --- | --- | --- | --- | --- | --- | --- | --- | --- | --- | --- | --- |
| O=C1c2c(O)ccc(O)c2C(=O)c2c(NCCNCCO)ccc(NCCNCCO)c21 [Compound 11, Mitoxantrone HCl] | 27.5 µM | 6.5 µM | 40% | 29.8 ± 1.18 µM | 44 ± 1.15 µM | 1.3 | 6.3 | – | – | – | 87% | greater than 10% | 8.2 µM | 41.1 µM | – | – | – |
